Source: PMC6080388 (Journal of Enzyme Inhibition and Medicinal Chemistry, 2017)
“And” between values parts separate entries of the source, which are not always exact repeats. Equal entries are not always repeated. Where two headings read alike, the source gives them in different places.

What was measured:
[1] = biological target: T1, BuChE (EC 3.1.1.8, from equin serum) (Equus caballus, UniProt P81908); experiment: biochemical; assay type: biochemical; settings: for BuChE inhibitory activity, fold higher than donepezil: in comparison to donepezil; for IC50: means ± SEM of three independent experiments, equine serum BuChE
T1 construct: BuChE (EC 3.1.1.8, from equin serum); purchased Sigma Aldrich (Steinheim, Germany); host or cells: equine serum
T1 sequence (P81908 whole entry): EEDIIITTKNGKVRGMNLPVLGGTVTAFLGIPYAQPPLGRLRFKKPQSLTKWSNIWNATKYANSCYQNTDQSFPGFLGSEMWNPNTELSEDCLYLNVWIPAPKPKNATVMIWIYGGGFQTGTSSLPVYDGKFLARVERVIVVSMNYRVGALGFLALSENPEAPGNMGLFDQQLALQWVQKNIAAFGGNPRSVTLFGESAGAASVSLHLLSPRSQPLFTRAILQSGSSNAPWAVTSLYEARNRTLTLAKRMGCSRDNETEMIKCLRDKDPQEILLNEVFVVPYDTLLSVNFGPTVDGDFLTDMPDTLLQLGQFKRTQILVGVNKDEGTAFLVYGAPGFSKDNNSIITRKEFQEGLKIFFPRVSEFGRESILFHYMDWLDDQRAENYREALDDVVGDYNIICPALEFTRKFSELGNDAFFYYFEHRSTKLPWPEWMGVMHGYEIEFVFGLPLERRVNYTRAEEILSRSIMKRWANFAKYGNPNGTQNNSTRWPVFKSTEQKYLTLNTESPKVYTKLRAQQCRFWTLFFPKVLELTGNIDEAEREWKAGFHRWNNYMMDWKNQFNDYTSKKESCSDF
Description: (§2) The inhibitory activities of the tested compounds towards AChE and BuChE were performed using Ellman’s method[25]. All reagents including AChE (EC 3.1.1.7, from Electrophorus electricus), BuChE (EC 3.1.1.8, from equin serum), DTNB (Ellman’s reagent), and acetylthiocholine iodide (ATC iodide) were purchased from Sigma Aldrich (Steinheim, Germany). Analysis was executed in following procedure: AChE and BuChE solution was made by dissolving enzymes in phosphate buffer (pH 7.4) to obtain 2 and 4 U/ml, respectively. […] The study was performed in triplicate and recorded in 96-well microplates, using multifunctional microplate reader. The assay medium contained DTNB solution 0.4 mg/ml (76 µl), AChE (10 µl), various concentration of the examined compounds (14 µl) and ATC iodine solution (40 µl) at the concentration of 1 mM. For the reference value, 14 µl of the test compound solutions were replaced by phosphate buffer (pH 7.4). […] Inhibition activity was expressed as a percentage of the activity of the tested compound relative to the reference control.

[2] = biological target: T2, AChE (EC 3.1.1.7, from Electrophorus electricus) (Electrophorus electricus, UniProt O42275); experiment: biochemical; assay type: biochemical; settings: for Selectivity for AChE: IC50(BuChE)/IC50(AChE)
T2 construct: purchased Sigma Aldrich (Steinheim, Germany)
T2 sequence (O42275 24-633): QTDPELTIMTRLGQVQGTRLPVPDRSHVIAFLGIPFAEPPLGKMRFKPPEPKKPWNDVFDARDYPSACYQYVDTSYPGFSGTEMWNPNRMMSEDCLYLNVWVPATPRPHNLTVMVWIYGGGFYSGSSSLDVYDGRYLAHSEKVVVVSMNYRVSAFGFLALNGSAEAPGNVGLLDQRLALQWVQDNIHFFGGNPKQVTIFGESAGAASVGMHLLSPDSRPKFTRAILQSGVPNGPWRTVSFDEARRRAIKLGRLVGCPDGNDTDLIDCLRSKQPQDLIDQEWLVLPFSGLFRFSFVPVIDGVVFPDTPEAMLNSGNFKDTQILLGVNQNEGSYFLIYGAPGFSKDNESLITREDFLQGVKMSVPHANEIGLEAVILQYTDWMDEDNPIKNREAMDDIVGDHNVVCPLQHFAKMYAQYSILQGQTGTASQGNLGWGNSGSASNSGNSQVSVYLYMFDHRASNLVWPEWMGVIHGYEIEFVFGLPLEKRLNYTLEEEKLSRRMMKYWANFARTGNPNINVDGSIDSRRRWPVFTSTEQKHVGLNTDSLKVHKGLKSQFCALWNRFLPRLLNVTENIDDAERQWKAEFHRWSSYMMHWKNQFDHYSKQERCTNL
Description: as §2

[3] = MTT cytotoxicity assay on ATCC CCL-185 cells; assay type: cell-based, human; settings: human, ATCC CCL-185 cells (human lung carcinoma epithelial cells), control as 100%, read-out: cell viability
Description: (§1) In the experiment, ATCC CCL-185 cell line was used (Epithelial cells from human lungs, carcinoma). Cells were seeded on 96-wells plate (F12 Thermo Fisher medium, Waltham MA) and incubated for 24 h. Then the cells were treated with various concentrations (0.22, 1.11, 2.22, 22.22, and 222.20 µM) of the tested compound dissolved in methanol and incubated for 48 h. Final methanol concentration in each well was 1 µl per 100 µl of medium. As a control, the same medium as for cells breeding was used with addition of 1 µl methanol and without studied compound. As a positive control pure methanol was used. After the time of incubation, procedure was carried out according to Vybrant MTT Cell Proliferation Assay Kit: cells were labelled with 10 µl of the 12 mM MTT stock solution, incubated at 37 °C for 4 h, all medium but 25 µl was removed from the wells, 50 µl of DMSO was added, incubated for 10 min at 37 °C and the absorbance at 540 nm was measured.

[4] = test system: ATCC CCL-185 cell line (Epithelial cells from human lungs, carcinoma); experiment: MTT cytotoxicity assay on ATCC CCL-185 cells; assay type: cell-based; settings: 22.22 µM; 48 h
Description: as §1

Aβ1–42 = biological target: T3, Aβ1–42 (Homo sapiens, UniProt P05067); experiment: Aβ1–42 aggregation assay, Thioflavin T fluorescence; assay type: biochemical; settings: Aβ1–42 12.58 μM, 24 h
T3 construct: final Aβ1–42 concentration – 12.58 μM
T3 sequence (P05067 672-713 limits assumed): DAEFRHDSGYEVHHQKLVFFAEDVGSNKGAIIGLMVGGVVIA
Description: The Aβ1–42 aggregation assay was established using the Thioflavin T fluorescence method[22] ^, [26] ^, [27]. Experiment was performed by incubating the peptides previously dissolved in DMSO at room temperature for 24 h (final Aβ1–42 concentration – 12.58 μM) with or without the tested compounds at the different concentrations (5, 10, 25, 50, and100 μM). After incubation all samples were diluted in PBS – phosphate buffer (pH 7.4) containing Thioflavin T (5 μM). Subsequently, after 5 min incubation with the dye, fluorescence signal was measured (excitation wavelength 446 nm, emission wavelength 490 nm) on a monochromator based multimode microplate reader (Synergy H1, Bio-Tek, Winooski, VT), adapted for 96-well microtiter plates. Next the percent of inhibition on aggregation was calculated by the following expression: 100 – (IFi/IFo × 100). IFi and IFo were the fluorescence intensities obtained for absorbance in the presence and absence of inhibitors, respectively. The background values were deducted in the calculations.

EqBuChE = biological target: T4, EqBuChE (Equus caballus, UniProt P81908); experiment: Kinetic characterisation of BuChE inhibition (Lineweaver–Burk); assay type: biochemical; settings: for Vmax: BuChE
T4 construct: BuChE (EC 3.1.1.8, from equin serum); purchased Sigma Aldrich (Steinheim, Germany); host or cells: equine serum
T4 sequence (P81908 whole entry): as the sequence (P81908 whole entry) above
Description: Kinetic analysis was performed using Ellman’s test[4] ^, [25]. […]. Total volume of tested medium (140 µl) comprised: DTNB solution (0.4 mg/ml), BuChE solution (4 U/ml), solution of the examined compound and different concentrations of the substrate ATC iodide. Absorbance was detected at 412 nm at room temperature after 8 min. Results were calculated and presented on the Lineweaver–Burk plot. Received KM and Vmax values allowed to define the type of enzyme inhibition.

EeAChE = biological target: T5, EeAChE (Electrophorus electricus, UniProt O42275); assay type: biochemical; settings: for Vmax: AChE
T5 construct: purchased Sigma Aldrich (Steinheim, Germany)
T5 sequence (O42275 24-633): as the sequence (O42275 24-633) above
Description: The kinetic characterisation was evaluated according to the Ellman’s method[4] ^, [25]. […]. The tested medium contained: DTNB solution (0.4 mg/ml), AChE solution (2 U/ml), solution of the examined compound and different concentrations of the substrate ACT iodide in a total volume of […]. Absorbance were detected at 412 nm at room temperature after 6 min. Received date were calculated and presented on the Lineweaver–Burk plot. Determinated the KM and Vmax values were used to define the type of enzyme inhibition.

[5] = biological target: T6, hyaluronidase from bovine testes Type I-S (Bos taurus, UniProt Q2YDK3); experiment: Hyaluronidase inhibition test (turbidimetric); assay type: biochemical; settings: means ± standard deviation; read-out: HYAL IC50 ± SD
T6 sequence (Q2YDK3 36-553): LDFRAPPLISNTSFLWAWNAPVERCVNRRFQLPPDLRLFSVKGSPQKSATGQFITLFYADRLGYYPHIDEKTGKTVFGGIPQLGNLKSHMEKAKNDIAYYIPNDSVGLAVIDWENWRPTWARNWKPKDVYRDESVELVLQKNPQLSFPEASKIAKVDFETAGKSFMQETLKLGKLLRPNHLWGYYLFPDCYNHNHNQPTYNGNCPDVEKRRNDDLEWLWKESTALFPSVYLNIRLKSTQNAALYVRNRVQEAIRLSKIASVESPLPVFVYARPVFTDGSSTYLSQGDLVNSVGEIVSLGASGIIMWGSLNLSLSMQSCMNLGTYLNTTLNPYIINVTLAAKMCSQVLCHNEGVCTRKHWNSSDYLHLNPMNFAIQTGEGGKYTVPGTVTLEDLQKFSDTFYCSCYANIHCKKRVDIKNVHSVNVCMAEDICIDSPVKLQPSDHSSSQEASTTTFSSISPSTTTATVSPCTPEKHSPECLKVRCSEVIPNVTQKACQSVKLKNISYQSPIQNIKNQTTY
Description: The inhibition study of hyaluronidase was carried out by turbidimetric method adapted to the 96-well plates and described previously by Michel et al[32] ^, [33]. […] Mixture was incubated in the dark at 37 °C for 10 min. Then, 40 µl of hyaluronic acid solution (0.03%, Sigma Aldrich, Steinheim, Germany) in monosodium phosphate buffer (pH 5.35) was added to the wells and the plate was incubated in the dark at 37 °C for 45 min. At the end, 300 µl of bovine serum albumin solution (0.1%, Serva) in sodium acetate buffer (pH 3.75) was added to the wells and incubated in the room temperature for 10 min. The changes in turbidity were measured at 600 nm by a microplate reader (BioTek, Winooski, VT). The assay was run out in three experiments in triplicate to calculate IC50 values. Heparin (WZF, Polfa) was used as a positive control.
The inhibition of hyaluronidase by the tested compound was calculated following the equation: % inhibition=100x1-AHA-AAN/AHA-AHYAL where AHA − absorbance of solution without the enzyme (positive control),
AHYAL − absorbance of solution without the tested compound (negative control), AAN − absorbance of solution with the tested compound.

[6] = means ± SEM of three independent experiments, electric eel AChE, read-out: AChE IC50 ± SEM

Cl.O=C(NCCCCCCCNc1c2c(nc3ccccc13)CCC2)c1cnc(Cl)c(Cl)c1 [3f, 5,6-Dichloro-N-[7-(2,3-dihydro-1H-cyclopenta[b]quinolin-9-ylamino)-heptyl]-nicotinamide hydrochloride]
Selectivity for BuChE ([1]; IC50(AChE)/IC50(BuChE)): 1.756
BuChE inhibitory activity, fold higher than donepezil [1]: 167 fold
IC50 [1]: 0.071 ± 0.012 µM
Selectivity for AChE [2]: 0.569
IC50 [2, 6]: 0.125 ± 0.021 µM

Cl.O=C(NCCCCCNc1c2c(nc3ccccc13)CCC2)c1cnc(Cl)c(Cl)c1 [3d, 5,6-Dichloro-N-[5-(2,3-dihydro-1H-cyclopenta[b]quinolin-9-ylamino)-pentyl]-nicotinamide hydrochloride]
Selectivity for BuChE ([1]; IC50(AChE)/IC50(BuChE)): 0.619
IC50 [1]: 0.46 ± 0.038 µM
Selectivity for AChE [2]: 1.615
IC50 [2, 6]: 0.285 ± 0.038 µM

Cl.O=C(NCCCNc1c2c(nc3ccccc13)CCC2)c1cnc(Cl)c(Cl)c1 [3b, 5,6-Dichloro-N-[3-(2,3-dihydro-1H-cyclopenta[b]quinolin-9-ylamino)-propyl]-nicotinamide hydrochloride]
Selectivity for BuChE [1]: 0.330
BuChE inhibitory activity, fold higher than donepezil [1]: 75 fold
IC50 [1]: 0.158 ± 0.029 µM
IC50 [2]: 0.052 ± 0.002 µM
Selectivity for AChE [2]: 3.030
AChE inhibitory potency, times higher than donepezil ([2]; in comparison to donepezil): ~2 times
viability at 48 h, 222.2 µM ([3]; 222.20 µM): ~7%
viability at 48 h ([3]; concentrations from 0.22 to 2.22 µM): ~70%
cell viability [4]: suddenly decreased
Aβ aggregation (%) (Aβ1–42; 3b 5 µM): 74.31%
Inhibition of Aβ aggregation (%) (Aβ1–42; 3b 5 µM): 25.7% and 25.69%
Aβ aggregation (%) (Aβ1–42; 3b 10 µM): 74.23%
Inhibition of Aβ aggregation (%) (Aβ1–42; 3b 10 µM): 25.77%
Aβ aggregation (%) (Aβ1–42; 3b 25 µM): 51.82%
Inhibition of Aβ aggregation (%) (Aβ1–42; 3b 25 µM): 48.18%
Aβ aggregation (%) (Aβ1–42; 3b 50 µM): 45.70%
Inhibition of Aβ aggregation (%) (Aβ1–42; 3b 50 µM): 54.30%
Aβ aggregation (%) (Aβ1–42; 3b 100 µM): 7.22%
Inhibition of Aβ aggregation (%) (Aβ1–42; 3b 100 µM): 92.8% and 92.78%
Vmax (EqBuChE; inhibitor 3b 0.22 µM): 3333.3 A/min
Vmax (EqBuChE; inhibitor 3b 0.56 µM): 1666.7 A/min
type of EqBuChE inhibition (EqBuChE; Lineweaver–Burk plot): mixed type of inhibition
Vmax (EeAChE; inhibitor 3b 0.11 µM): 312.50 A/min
Vmax (EeAChE; inhibitor 3b 1.11 µM): 1666.67 A/min
type of EeAChE inhibition (EeAChE; Lineweaver–Burk plot): mixed type of inhibition

Cl.O=C(NCCCCCCNc1c2c(nc3ccccc13)CCC2)c1cnc(Cl)c(Cl)c1 [3e, 5,6-Dichloro-N-[6-(2,3-dihydro-1H-cyclopenta[b]quinolin-9-ylamino)-hexyl]-nicotinamide hydrochloride]
Selectivity for BuChE ([1]; IC50(AChE)/IC50(BuChE)): 0.420
IC50 [1]: 0.127 ± 0.014 µM
Selectivity for AChE [2]: 2.380
IC50 [2, 6]: 0.053 ± 0.005 µM

Cl.O=C(NCCCCNc1c2c(nc3ccccc13)CCC2)c1cnc(Cl)c(Cl)c1 [3c, 5,6-Dichloro-N-[4-(2,3-dihydro-1H-cyclopenta[b]quinolin-9-ylamino)-butyl]-nicotinamide hydrochloride]
Selectivity for BuChE ([1]; IC50(AChE)/IC50(BuChE)): 0.934
IC50 [1]: 0.797 ± 0.086 µM
Selectivity for AChE [2]: 1.071
IC50 [2, 6]: 0.744 ± 0.046 µM

Cl.O=C(NCCCCCCCCNc1c2c(nc3ccccc13)CCC2)c1cnc(Cl)c(Cl)c1 [3g, 5,6-Dichloro-N-[8-(2,3-dihydro-1H-cyclopenta[b]quinolin-9-ylamino)-octyl]-nicotinamide hydrochloride]
Selectivity for BuChE ([1]; IC50(AChE)/IC50(BuChE)): 1.407
IC50 [1]: 0.108 ± 0.006 µM
Selectivity for AChE [2]: 0.711
IC50 [2, 6]: 0.152 ± 0.045 µM

Cl.O=C(NCCCCCCCCCNc1c2c(nc3ccccc13)CCC2)c1cnc(Cl)c(Cl)c1 [3h, 5,6-Dichloro-N-[9-(2,3-dihydro-1H-cyclopenta[b]quinolin-9-ylamino)-nonyl]-nicotinamide hydrochloride]
Selectivity for BuChE ([1]; IC50(AChE)/IC50(BuChE)): 1.889
IC50 [1]: 0.082 ± 0.03 µM
Selectivity for AChE [2]: 0.529
IC50 [2, 6]: 0.155 ± 0.045 µM

Cl.O=C(NCCNc1c2c(nc3ccccc13)CCC2)c1cnc(Cl)c(Cl)c1 [3a, 5,6-Dichloro-N-[2-(2,3-dihydro-1H-cyclopenta[b]quinolin-9-ylamino)-ethyl]-nicotinamide hydrochloride]
Selectivity for BuChE ([1]; IC50(AChE)/IC50(BuChE)): 0.035
IC50 [1]: 1.86 ± 0.083 µM
Selectivity for AChE [2]: 28.593
IC50 [2, 6]: 0.065 ± 0.007 µM

Heparin
IC50 [5]: 56.4 ± 0.78 µM
